Source: patent US12202823B2 (QUIMATRYX, S.L., priority 2019, dated 2025)
Where two headings read alike, the source gives them in different places.

Assays:
hHDAC2 = hHDAC2 (Homo sapiens (Human), UniProt Q92769); assay: hHDAC2 inhibition protocol; conditions: read-out: IC50 (nM) of enzyme activity HDAC2; selectivity table
Method: (§1) After enzymatic reactions, reaction was stopped by adding 5 μl of 10 μM solution of a known inhibitor. The fluorescent signal of substrate and product was measured by means of microfluidics mobility assay in a EZ Reader II equipment. The percentage of conversion of substrate into product was calculated by the equipment software based on the area of the peaks.
(§2) The percentage of conversion data were analyzed using the computer software, Graphpad Prism. In the absence of the compound, the conversion (Ct) in each data set was defined as 100% activity. In the absence of HDAC, the conversion (Cb) in each data set was defined as 0% activity. The percent activity in the presence of each compound was calculated according to the following equation: % inhibition=(Ct−C)/(Ct−Cb), where C=the percentage of conversion in the presence of the compound.
(§3) The values of % inhibition versus a series of compound concentrations were then plotted using non-linear regression analysis of Sigmoidal dose-response curve generated with the equation Y=B+(T−B)/1+10((Log EC50−X)×Hill Slope), where Y=percent inhibition, B=minimum percent inhibition, T=maximum percent inhibition, X=logarithm of compound and Hill Slope=slope factor or Hill coefficient. The IC50 value was determined by the concentration causing a half-maximal percent activity.
The buffer assay used in the inhibition hHDAC2 assay is: Hepes 50 mM, KCl 100 mM, Tween 20 0.001%, BSA 0.01%; pH=7.4.

hHDAC1 = hHDAC1 (Homo sapiens (Human), UniProt Q13547); assay: hHDAC1 inhibition protocol; conditions: read-out: IC50 (nM) of enzyme activity HDAC1; selectivity table
Method: as §1, §2, §3
The buffer assay used in the inhibition hHDAC1 assay is: Hepes 50 mM, KCl 100 mM, Tween 20 0.001%, BSA 0.01%; pH=7.4.

hHDAC3 = hHDAC3 (Homo sapiens (Human), UniProt O15379); assay: hHDAC3 inhibition protocol; conditions: read-out: IC50 (nM) of enzyme activity HDAC3; selectivity table
Sequence of hHDAC3 (O15379 whole entry): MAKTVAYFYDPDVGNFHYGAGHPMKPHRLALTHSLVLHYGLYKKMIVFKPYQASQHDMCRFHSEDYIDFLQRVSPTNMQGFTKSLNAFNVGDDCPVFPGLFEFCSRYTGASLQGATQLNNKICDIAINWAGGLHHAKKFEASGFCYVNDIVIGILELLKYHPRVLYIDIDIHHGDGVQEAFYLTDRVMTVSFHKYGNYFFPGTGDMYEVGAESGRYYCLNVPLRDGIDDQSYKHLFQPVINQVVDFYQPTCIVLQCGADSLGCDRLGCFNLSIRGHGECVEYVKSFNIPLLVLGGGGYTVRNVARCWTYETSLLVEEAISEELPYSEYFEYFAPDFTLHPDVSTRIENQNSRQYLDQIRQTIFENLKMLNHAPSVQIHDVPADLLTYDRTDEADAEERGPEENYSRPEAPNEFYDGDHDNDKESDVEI
Sequence of hHDAC3 (Q9Y618 395-489 partner): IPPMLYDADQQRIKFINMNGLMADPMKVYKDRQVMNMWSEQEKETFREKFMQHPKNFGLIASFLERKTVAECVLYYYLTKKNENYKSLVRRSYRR
Method: as §1, §2, §3
The buffer assay used in the inhibition hHDAC3 assay is: Hepes 50 mM, KCl 100 mM, Tween 20 0.001%, BSA 0.01%; pH=7.4.

hHDAC9 = hHDAC9 (Homo sapiens (Human), UniProt Q9UKV0); assay: hHDAC9 inhibition protocol; conditions: read-out: IC50 (nM) of enzyme activity HDAC9; selectivity table
Sequence of hHDAC9 (Q9UKV0 whole entry): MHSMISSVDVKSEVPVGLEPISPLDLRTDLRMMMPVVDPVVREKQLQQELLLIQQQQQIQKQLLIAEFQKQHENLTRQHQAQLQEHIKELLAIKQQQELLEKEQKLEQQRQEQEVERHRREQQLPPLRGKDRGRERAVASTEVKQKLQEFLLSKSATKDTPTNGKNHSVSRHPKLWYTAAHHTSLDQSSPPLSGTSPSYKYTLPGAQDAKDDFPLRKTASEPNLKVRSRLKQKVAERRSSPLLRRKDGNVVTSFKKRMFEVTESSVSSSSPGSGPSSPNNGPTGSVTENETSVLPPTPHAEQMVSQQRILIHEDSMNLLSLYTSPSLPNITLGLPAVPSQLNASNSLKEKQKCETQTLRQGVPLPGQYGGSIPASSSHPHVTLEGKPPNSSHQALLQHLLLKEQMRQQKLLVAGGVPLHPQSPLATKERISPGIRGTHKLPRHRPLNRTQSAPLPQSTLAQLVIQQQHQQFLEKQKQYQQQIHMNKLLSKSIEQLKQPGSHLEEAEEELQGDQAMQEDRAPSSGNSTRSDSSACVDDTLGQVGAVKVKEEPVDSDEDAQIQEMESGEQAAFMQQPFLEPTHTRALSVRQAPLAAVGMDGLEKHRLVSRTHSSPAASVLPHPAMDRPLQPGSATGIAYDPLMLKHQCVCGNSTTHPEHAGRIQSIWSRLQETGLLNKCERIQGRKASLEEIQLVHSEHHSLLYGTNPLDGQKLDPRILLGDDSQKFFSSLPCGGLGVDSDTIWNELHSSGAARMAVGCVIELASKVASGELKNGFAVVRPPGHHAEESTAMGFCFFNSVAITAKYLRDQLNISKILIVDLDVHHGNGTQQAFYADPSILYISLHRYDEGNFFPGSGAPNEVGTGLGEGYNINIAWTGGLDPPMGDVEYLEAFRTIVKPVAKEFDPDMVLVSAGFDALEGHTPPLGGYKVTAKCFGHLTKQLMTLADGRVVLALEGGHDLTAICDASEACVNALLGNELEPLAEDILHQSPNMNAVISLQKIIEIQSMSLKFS
Method: as §1, §2, §3
The buffer assay used in the inhibition hHDAC9 assay is: Hepes 50 mM, KCl 100 mM, Tween 20 0.001%, BSA 0.01%; pH=7.4.

hHDAC7 = hHDAC7 (Homo sapiens (Human), UniProt Q8WUI4); assay: hHDAC7 inhibition protocol; conditions: read-out: IC50 (nM) of enzyme activity HDAC7; selectivity table
Method: The fluorescent signal of substrate and product was measured by means of microfluidics mobility assay in a EZ Reader II equipment. The percentage of conversion of substrate into product was calculated by the equipment software based on the area of the peaks.
as §2, §3
The buffer assay used in the inhibition hHDAC7 assay is: Hepes 50 mM, KCl 100 mM, Tween 20 0.001%, BSA 0.01%; pH=7.4.

hHDAC10 = hHDAC10 (Homo sapiens (Human), UniProt Q969S8); assay: HDAC10 inhibition protocol; conditions: read-out: IC50 (nM) of enzyme activity HDAC10; selectivity table
Sequence of hHDAC10 (Q969S8 whole entry): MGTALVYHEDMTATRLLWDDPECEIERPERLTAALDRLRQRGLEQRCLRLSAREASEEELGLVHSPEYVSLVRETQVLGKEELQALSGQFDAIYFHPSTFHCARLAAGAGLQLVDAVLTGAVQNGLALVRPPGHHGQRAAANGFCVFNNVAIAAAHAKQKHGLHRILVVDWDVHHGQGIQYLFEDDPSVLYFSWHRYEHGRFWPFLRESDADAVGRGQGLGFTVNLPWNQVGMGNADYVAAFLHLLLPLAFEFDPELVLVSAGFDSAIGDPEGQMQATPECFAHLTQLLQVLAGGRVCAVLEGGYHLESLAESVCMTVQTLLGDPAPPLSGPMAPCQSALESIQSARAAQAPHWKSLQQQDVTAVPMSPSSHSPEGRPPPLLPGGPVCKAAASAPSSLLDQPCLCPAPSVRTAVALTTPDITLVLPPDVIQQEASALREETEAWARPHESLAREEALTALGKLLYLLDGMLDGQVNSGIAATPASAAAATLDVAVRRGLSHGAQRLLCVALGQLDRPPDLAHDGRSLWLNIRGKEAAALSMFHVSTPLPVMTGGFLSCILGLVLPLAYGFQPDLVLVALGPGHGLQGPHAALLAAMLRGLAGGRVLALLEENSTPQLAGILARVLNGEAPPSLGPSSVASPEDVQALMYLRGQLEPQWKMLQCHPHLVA
Method: as §1, §2, §3
The buffer assay used in the inhibition hHDAC10 assay is: Hepes 50 mM, KCl 100 mM, Tween 20 0.001%, BSA 0.01%; pH=7.4.

hHDAC5 = hHDAC5 (Homo sapiens (Human), UniProt Q9UQL6); assay: hHDAC5 inhibition protocol; conditions: read-out: IC50 (nM) of enzyme activity HDAC5; selectivity table
Sequence of hHDAC5 (Q9UQL6 whole entry): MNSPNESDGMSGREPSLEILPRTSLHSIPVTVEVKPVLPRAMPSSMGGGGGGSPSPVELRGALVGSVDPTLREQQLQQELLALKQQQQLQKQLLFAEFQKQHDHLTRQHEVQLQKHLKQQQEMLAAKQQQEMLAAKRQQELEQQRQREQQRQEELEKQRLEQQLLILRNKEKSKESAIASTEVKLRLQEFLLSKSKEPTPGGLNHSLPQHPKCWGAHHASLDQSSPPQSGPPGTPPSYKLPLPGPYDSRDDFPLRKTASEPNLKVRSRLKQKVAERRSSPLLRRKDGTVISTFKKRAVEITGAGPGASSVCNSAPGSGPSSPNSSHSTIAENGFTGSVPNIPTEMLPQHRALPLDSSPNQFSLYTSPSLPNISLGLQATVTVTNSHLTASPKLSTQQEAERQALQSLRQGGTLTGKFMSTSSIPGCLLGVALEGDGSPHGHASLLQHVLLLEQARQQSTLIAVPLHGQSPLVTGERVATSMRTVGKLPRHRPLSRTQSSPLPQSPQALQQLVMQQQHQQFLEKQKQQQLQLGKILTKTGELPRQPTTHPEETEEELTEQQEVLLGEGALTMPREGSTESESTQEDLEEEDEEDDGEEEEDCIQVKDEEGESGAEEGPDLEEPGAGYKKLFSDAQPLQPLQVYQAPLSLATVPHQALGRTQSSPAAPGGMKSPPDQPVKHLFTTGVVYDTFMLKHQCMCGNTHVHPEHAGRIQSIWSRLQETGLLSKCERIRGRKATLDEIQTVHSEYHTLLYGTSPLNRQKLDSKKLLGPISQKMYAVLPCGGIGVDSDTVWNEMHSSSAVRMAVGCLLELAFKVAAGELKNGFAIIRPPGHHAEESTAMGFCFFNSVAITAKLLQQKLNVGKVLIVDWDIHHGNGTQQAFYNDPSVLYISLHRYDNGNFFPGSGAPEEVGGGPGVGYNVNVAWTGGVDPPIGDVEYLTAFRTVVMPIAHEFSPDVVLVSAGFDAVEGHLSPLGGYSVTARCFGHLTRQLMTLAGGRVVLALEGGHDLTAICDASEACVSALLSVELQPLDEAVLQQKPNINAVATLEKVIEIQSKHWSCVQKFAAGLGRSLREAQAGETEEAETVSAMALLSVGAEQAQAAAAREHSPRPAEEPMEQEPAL
Method: as §1, §2, §3
The buffer assay used in the inhibition hHDAC5 assay is: Hepes 50 mM, KCl 100 mM, Tween 20 0.001%, BSA 0.01%; pH=7.4.

hHDAC6 = hHDAC6 (Homo sapiens (Human), UniProt Q9UBN7); assay: HDAC6 inhibition protocol; conditions: read-out: IC50 (nM) of enzyme activity HDAC6
Method: as §1, §2, §3
The buffer assay used in the inhibition hHDAC6 assay is: Hepes 50 mM, KCl 100 mM, Tween 20 0.001%, BSA 0.01%; pH=7.4.

hHDAC8 = hHDAC8 (Homo sapiens (Human), UniProt Q9BY41); assay: hHDAC8 inhibition protocol; conditions: read-out: IC50 (nM) of enzyme activity HDAC8; selectivity table
Method: as §1, §2, §3
The buffer assay used in the inhibition hHDAC8 assay is: Hepes 50 mM, KCl 100 mM, Tween 20 0.001%, BSA 0.01%; pH=7.4.

hHDAC4 = hHDAC4 (Homo sapiens (Human), UniProt P56524); assay: hHDAC4 inhibition protocol; conditions: read-out: IC50 (nM) of enzyme activity HDAC4; selectivity table
Sequence of hHDAC4 (P56524 whole entry): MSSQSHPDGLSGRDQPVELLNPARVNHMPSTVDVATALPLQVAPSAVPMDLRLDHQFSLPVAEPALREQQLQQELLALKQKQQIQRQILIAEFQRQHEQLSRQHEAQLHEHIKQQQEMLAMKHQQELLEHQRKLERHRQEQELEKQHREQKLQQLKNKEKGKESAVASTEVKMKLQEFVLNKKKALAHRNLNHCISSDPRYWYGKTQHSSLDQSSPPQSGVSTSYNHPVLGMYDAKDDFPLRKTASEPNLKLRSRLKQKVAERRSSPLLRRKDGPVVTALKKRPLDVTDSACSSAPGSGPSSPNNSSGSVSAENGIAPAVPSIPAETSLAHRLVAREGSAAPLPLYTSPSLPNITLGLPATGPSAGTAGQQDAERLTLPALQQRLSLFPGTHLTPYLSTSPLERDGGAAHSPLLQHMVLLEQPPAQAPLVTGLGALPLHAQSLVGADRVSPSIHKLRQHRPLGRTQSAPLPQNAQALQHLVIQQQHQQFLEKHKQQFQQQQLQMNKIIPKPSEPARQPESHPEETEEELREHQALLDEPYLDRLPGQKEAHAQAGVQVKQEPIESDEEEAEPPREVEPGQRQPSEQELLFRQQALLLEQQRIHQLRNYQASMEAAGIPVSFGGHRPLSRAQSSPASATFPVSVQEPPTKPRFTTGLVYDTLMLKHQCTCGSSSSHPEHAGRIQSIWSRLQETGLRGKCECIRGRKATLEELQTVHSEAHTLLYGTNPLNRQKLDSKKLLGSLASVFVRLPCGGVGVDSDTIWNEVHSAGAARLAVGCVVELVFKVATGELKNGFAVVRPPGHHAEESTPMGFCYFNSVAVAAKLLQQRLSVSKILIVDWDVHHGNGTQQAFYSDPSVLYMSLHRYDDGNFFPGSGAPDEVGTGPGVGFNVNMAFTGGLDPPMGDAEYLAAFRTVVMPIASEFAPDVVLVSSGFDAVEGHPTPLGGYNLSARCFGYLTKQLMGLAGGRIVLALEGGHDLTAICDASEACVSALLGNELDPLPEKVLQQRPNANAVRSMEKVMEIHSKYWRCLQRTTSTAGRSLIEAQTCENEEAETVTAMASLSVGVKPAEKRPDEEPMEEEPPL
Method: as §1, §2, §3
The buffer assay used in the inhibition hHDAC4 assay is: Hepes 50 mM, KCl 100 mM, Tween 20 0.001%, BSA 0.01%; pH=7.4.

[1] = hHDAC6 1.20 nM, Acetylated Peptide A 2 μM, 1 hour at RT

Sequence of hHDAC1 (Q13547 whole entry): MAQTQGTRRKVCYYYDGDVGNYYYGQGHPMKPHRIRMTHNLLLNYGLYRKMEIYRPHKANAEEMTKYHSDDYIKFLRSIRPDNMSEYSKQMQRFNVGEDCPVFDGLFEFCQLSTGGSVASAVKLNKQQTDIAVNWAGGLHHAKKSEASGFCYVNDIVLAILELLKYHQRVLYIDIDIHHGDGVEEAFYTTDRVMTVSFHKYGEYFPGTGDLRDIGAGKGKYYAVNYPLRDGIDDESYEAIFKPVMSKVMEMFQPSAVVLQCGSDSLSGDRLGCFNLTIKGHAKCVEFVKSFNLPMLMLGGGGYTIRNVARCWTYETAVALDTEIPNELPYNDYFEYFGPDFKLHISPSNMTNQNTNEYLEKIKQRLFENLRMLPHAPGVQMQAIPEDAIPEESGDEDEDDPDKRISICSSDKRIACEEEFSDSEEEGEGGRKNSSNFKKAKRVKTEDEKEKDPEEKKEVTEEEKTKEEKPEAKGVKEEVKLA

With `FC(F)c1nnc(-c2ccc(Cn3cc4ccccc4n3)cc2)o1` [Example 7, 2-(4-((2H-indazol-2-yl)methyl)phenyl)-5-(difluoromethyl)-1,3,4-oxadiazole] the IC50 (hHDAC2) was over 10000 nM, the IC50 (hHDAC1) was over 10000 nM and the IC50 (hHDAC3) was over 10000 nM. The IC50 (hHDAC9) was over 10000 nM, the IC50 (hHDAC7) was over 10000 nM and the IC50 (hHDAC10) was over 10000 nM. The IC50 (hHDAC5) was over 10000 nM, the IC50 (hHDAC6; [1]) was 365 nM and the IC50 (hHDAC6; selectivity table) was 365 nM. The IC50 (hHDAC8) was over 10000 nM and the IC50 (hHDAC4) was over 10000 nM.

`FC(F)c1nnc(-c2ccc(Cn3cc(-c4ccccc4)nn3)cc2)o1` [Example 27, 2-(difluoromethyl)-5-(4-((4-phenyl-1H-1,2,3-triazol-1-yl)methyl)phenyl)-1,3,4-oxadiazole] was tested, and the IC50 (hHDAC2) was over 10000 nM, the IC50 (hHDAC1) was over 10000 nM and the IC50 (hHDAC3) was over 10000 nM. For the same compound, the IC50 (hHDAC9) was over 10000 nM, the IC50 (hHDAC7) was over 10000 nM and the IC50 (hHDAC10) was over 10000 nM. It also gave an IC50 (hHDAC5) of over 10000 nM, an IC50 (hHDAC6; [1]) of 85.3 nM and an IC50 (hHDAC6; selectivity table) of 85.3 nM. For the same compound, the IC50 (hHDAC8) was over 10000 nM and the IC50 (hHDAC4) was over 10000 nM.

Compound `FC(F)c1nnc(-c2ccc(Cn3nnc4cc(Cl)c(Cl)cc43)nc2)o1` [Example 24, 2-(6-((5,6-dichloro-1H-benzo[d][1,2,3]triazol-1-yl)methyl)pyridin-3-yl)-5-(difluoromethyl)-1,3,4-oxadiazole] has an IC50 (hHDAC2) of over 10000 nM, an IC50 (hHDAC1) of over 10000 nM and an IC50 (hHDAC3) of over 10000 nM. For the same compound, the IC50 (hHDAC9) was 8620 nM, the IC50 (hHDAC7) was over 10000 nM and the IC50 (hHDAC10) was over 10000 nM. For the same compound, the IC50 (hHDAC5) was over 10000 nM, the IC50 (hHDAC6; [1]) was 29.5 nM and the IC50 (hHDAC6; selectivity table) was 29.5 nM. For the same compound, the IC50 (hHDAC8) was over 10000 nM and the IC50 (hHDAC4) was 8370 nM.

`FC(F)c1nnc(-c2ccc(Cn3nc4cc(Cl)c(Cl)cc4n3)nc2)o1` [Example 25, 2-(6-((5,6-dichloro-2H-benzo[d][1,2,3]triazol-2-yl)methyl)pyridin-3-yl)-5-(difluoromethyl)-1,3,4-oxadiazole] was tested, and the IC50 (hHDAC2) was over 10000 nM, the IC50 (hHDAC1) was over 10000 nM and the IC50 (hHDAC3) was over 10000 nM. It also gave an IC50 (hHDAC9) of over 10000 nM, an IC50 (hHDAC7) of over 10000 nM and an IC50 (hHDAC10) of over 10000 nM. It also gave an IC50 (hHDAC5) of over 10000 nM, an IC50 (hHDAC6; [1]) of 29.8 nM and an IC50 (hHDAC6; selectivity table) of 29.8 nM. For the same compound, the IC50 (hHDAC8) was over 10000 nM and the IC50 (hHDAC4) was over 10000 nM.

With `Fc1ccccc1-c1cn(Cc2ccc(-c3nnc(C(F)F)o3)cn2)nn1` [Example 48, 2-(difluoromethyl)-5-(6-((4-(2-fluorophenyl)-1H-1,2,3-triazol-1-yl)methyl)pyridin-3-yl)-1,3,4-oxadiazole] the IC50 (hHDAC2) was over 10000 nM, the IC50 (hHDAC1) was over 10000 nM and the IC50 (hHDAC3) was over 10000 nM. The IC50 (hHDAC9) was over 10000 nM, the IC50 (hHDAC7) was over 10000 nM and the IC50 (hHDAC10) was over 10000 nM. For the same compound, the IC50 (hHDAC5) was over 10000 nM, the IC50 (hHDAC6; [1]) was 24 nM and the IC50 (hHDAC6; selectivity table) was 24 nM. The IC50 (hHDAC8) was over 10000 nM and the IC50 (hHDAC4) was over 10000 nM.

`Cc1cc2nnn(Cc3ccc(-c4nnc(C(F)F)o4)cn3)c2cc1C` [Example 59, 2-(difluoromethyl)-5-(6-((5,6-dimethyl-1H-benzo[d][1,2,3]triazol-1-yl)methyl)pyridin-3-yl)-1,3,4-oxadiazole] gave an IC50 (hHDAC6; [1]) of 85.1 nM.

In the case of `FC(F)c1nnc(-c2ccc(Cn3nnc(-c4ccccc4Cl)c3Cl)nc2)o1` [Example 53, 2-(6-((5-chloro-4-(2-chlorophenyl)-1H-1,2,3-triazol-1-yl)methyl)pyridin-3-yl)-5-(difluoromethyl)-1,3,4-oxadiazole], the IC50 (hHDAC6; [1]) is reported as 81.5 nM.

Compound `Fc1cc(F)cc(-c2cn(Cc3ccc(-c4nnc(C(F)F)o4)cn3)nn2)c1` [Example 56, 2-(difluoromethyl)-5-(6-((4-(3,5-difluorophenyl)-1H-1,2,3-triazol-1-yl)methyl)pyridin-3-yl)-1,3,4-oxadiazole] has an IC50 (hHDAC6; [1]) of 66.5 nM.

Work on `FC(F)c1nnc(-c2ccc(Cn3nnc(-c4ccccc4)c3Cl)nc2)o1` [Example 52, 2-(6-((5-chloro-4-phenyl-1H-1,2,3-triazol-1-yl)methyl)pyridin-3-yl)-5-(difluoromethyl)-1,3,4-oxadiazole] yielded an IC50 (hHDAC6; [1]) of 48.4 nM.

For `FC(F)c1nnc(-c2ccc(Cn3ccc4cccnc43)cc2)o1` [Example 4, 2-(4-((1H-pyrrolo[2,3-b]pyridin-1-yl)methyl)phenyl)-5-(difluoromethyl)-1,3,4-oxadiazole], the IC50 (hHDAC6; [1]) was 1760 nM.

`FC(F)c1nnc(-c2ccc(Cn3cc(-c4ccc(Cl)cc4)nn3)nc2)o1` [Example 43, 2-(6-((4-(4-chlorophenyl)-1H-1,2,3-triazol-1-yl)methyl)pyridin-3-yl)-5-(difluoromethyl)-1,3,4-oxadiazole] gave an IC50 (hHDAC6; [1]) of 43.1 nM.

For `FC(F)c1nnc(-c2ccc(Cn3cc(-c4ccccc4Cl)nn3)nc2)o1` [Example 44, 2-(6-((4-(2-chlorophenyl)-1H-1,2,3-triazol-1-yl)methyl)pyridin-3-yl)-5-(difluoromethyl)-1,3,4-oxadiazole], the IC50 (hHDAC6; [1]) was 37.1 nM.

Compound `FC(F)c1nnc(-c2ccc(Cn3nnc4ccc(Cl)cc43)cc2)o1` [Example 13, 2-(4-((6-chloro-1H-benzo[d][1,2,3]triazol-1-yl)methyl)phenyl)-5-(difluoromethyl)-1,3,4-oxadiazole] has an IC50 (hHDAC6; [1]) of 129 nM.

With `FC(F)c1nnc(-c2ccc(Cn3cc(-c4ccc(Cl)c(Cl)c4)nn3)nc2)o1` [Example 46, 2-(6-((4-(3,4-dichlorophenyl)-1H-1,2,3-triazol-1-yl)methyl)pyridin-3-yl)-5-(difluoromethyl)-1,3,4-oxadiazole] the IC50 (hHDAC6; [1]) was 37.9 nM.

`FC(F)c1nnc(-c2ccc(Cn3cnc4ccccc43)cc2)o1` [Example 8, 2-(4-((1H-benzo[d]imidazol-1-yl)methyl)phenyl)-5-(difluoromethyl)-1,3,4-oxadiazole] was tested, and the IC50 (hHDAC6; [1]) was 387 nM.

`FC(F)c1nnc(-c2ccc(Cn3cnc4cc(Cl)c(Cl)cc43)cc2)o1` [Example 10, 2-(4-((5,6-dichloro-1H-benzo[d]imidazol-1-yl)methyl)phenyl)-5-(difluoromethyl)-1,3,4-oxadiazole] showed an IC50 (hHDAC6; [1]) of 60.2 nM.

Work on `FC(F)c1nnc(-c2ccc(Cn3nc4ccc(Br)cc4n3)nc2)o1` [Example 66, 2-(6-((5-bromo-2H-benzo[d][1,2,3]triazol-2-yl)methyl)pyridin-3-yl)-5-(difluoromethyl)-1,3,4-oxadiazole] yielded an IC50 (hHDAC6; [1]) of 33.3 nM.

Compound `Fc1cc(-c2cn(Cc3ccc(-c4nnc(C(F)F)o4)cn3)nn2)cc(F)c1F` [Example 57, 2-(difluoromethyl)-5-(6-((4-(3,4,5-trifluorophenyl)-1H-1,2,3-triazol-1-yl)methyl)pyridin-3-yl)-1,3,4-oxadiazole] has an IC50 (hHDAC6; [1]) of 149 nM.

In the case of `FC(F)c1nnc(-c2ccc(C(Cl)n3cc(-c4ccccc4)nn3)nc2)o1` (centres unmarked) [Example 55, 2-(6-(chloro(4-phenyl-1H-1,2,3-triazol-1-yl)methyl)pyridin-3-yl)-5-(difluoromethyl)-1,3,4-oxadiazole], the IC50 (hHDAC6; [1]) is reported as 58.2 nM.

For `FC(F)c1nnc(-c2ccc(Cn3nnc4ccccc43)cc2)o1` [Example 11, 2-(4-((1H-benzo[d][1,2,3]triazol-1-yl)methyl)phenyl)-5-(difluoromethyl)-1,3,4-oxadiazole], the IC50 (hHDAC2) was over 10000 nM, the IC50 (hHDAC1) was over 10000 nM and the IC50 (hHDAC3) was over 10000 nM. For the same compound, the IC50 (hHDAC9) was over 10000 nM, the IC50 (hHDAC7) was over 10000 nM and the IC50 (hHDAC10) was over 10000 nM. It also gave an IC50 (hHDAC5) of over 10000 nM, an IC50 (hHDAC6; [1]) of 171 nM and an IC50 (hHDAC6; selectivity table) of 171 nM. The IC50 (hHDAC8) was over 10000 nM and the IC50 (hHDAC4) was over 10000 nM.

`FC(F)c1nnc(-c2ccc(Cn3ccc4ccccc43)cc2)o1` [Example 1, 2-(4-((1H-indol-1-yl)methyl)phenyl)-5-(difluoromethyl)-1,3,4-oxadiazole] showed an IC50 (hHDAC6; [1]) of 3040 nM.

Work on `FC(F)c1nnc(-c2ccc(Cn3cc(-c4ccsc4)nn3)cc2)o1` [Example 35, 2-(difluoromethyl)-5-(4-((4-(thiophen-3-yl)-1H-1,2,3-triazol-1-yl)methyl)phenyl)-1,3,4-oxadiazole] yielded an IC50 (hHDAC6; [1]) of 131 nM.

For `FC(F)c1nnc(-c2ccc(Cn3cnc4cc(Cl)c(Cl)cc43)nc2)o1` [Example 22, 2-(6-((5,6-dichloro-1H-benzo[d]imidazol-1-yl)methyl)pyridin-3-yl)-5-(difluoromethyl)-1,3,4-oxadiazole], the IC50 (hHDAC2) was over 10000 nM, the IC50 (hHDAC1) was over 10000 nM and the IC50 (hHDAC3) was over 10000 nM. The IC50 (hHDAC9) was 6520 nM, the IC50 (hHDAC7) was 9400 nM and the IC50 (hHDAC10) was over 10000 nM. For the same compound, the IC50 (hHDAC5) was over 10000 nM, the IC50 (hHDAC6; [1]) was 22.4 nM and the IC50 (hHDAC6; selectivity table) was 22.4 nM. It also gave an IC50 (hHDAC8) of over 10000 nM and an IC50 (hHDAC4) of 2400 nM.

With `FC(F)c1nnc(-c2ccc(Cn3cc(C4CCCCC4)nn3)cc2)o1` [Example 32, 2-(4-((4-cyclohexyl-1H-1,2,3-triazol-1-yl)methyl)phenyl)-5-(difluoromethyl)-1,3,4-oxadiazole] the IC50 (hHDAC6; [1]) was 475 nM.

Work on `Cc1cc2ncn(Cc3ccc(-c4nnc(C(F)F)o4)cn3)c2cc1C` [Example 61, 2-(difluoromethyl)-5-(6-((5,6-dimethyl-1H-benzo[d]imidazol-1-yl)methyl)pyridin-3-yl)-1,3,4-oxadiazole] yielded an IC50 (hHDAC6; [1]) of 187 nM.
